Key:
[1] = system: human fecal polymicrobial community; experiment: Example 11: human fecal polymicrobial incubation with d9-choline, compound screening; format: cell-based; settings: TABLE 11, fecal slurry, 50 μM d9-choline chloride, 20 hours, doses 250 μM to 0.238 nM, read-out: TMA Inhibition (IC50, mol/L)
Method: Human fecal polymicrobial incubation with deuterium labeled choline compound screening method, including cell viability assay. All materials were pre-reduced in an anaerobic chamber for 24 hours before using in the experiments and experimental procedures were performed under anaerobic conditions (chamber purged with 85% nitrogen, 5% hydrogen, 10% carbon dioxide).
Human fecal samples were collected from a healthy volunteer with no chronic illnesses, blood borne diseases or active infections. The volunteer had not received antibiotics within two months prior to donation and provided written informed consent. Samples were diluted to make a 20% (w/v) fecal slurry by resuspension of the feces in a media containing 3% (w/v) tryptic soy broth (BBL #211825), 1% (w/v) trehalose (Sigma #T9631), pH 7.3. The fecal slurry was homogenized and filtered by hand using a stomacher bag with an integrated 170 μm membrane. DMSO (5% (w/v)) was added to the filtered slurry and aliquots were stored in cryogenic vials at −80° C. until use. […] After 20 hours, an aliquot of the fecal polymicrobial community was analyzed for viability using PrestoBlue cell viability reagent (Thermo Fisher Scientific, USA) as described below. […] The products were determined by LC/MS/MS and IC50 values were calculated as described previously for detection and analysis of TMA and d9-TMA in EXAMPLE 9. […]

[2] = system: Proteus mirabilis 29906 (Pm) lysate; experiment: Example 10: inhibition of formation of TMA from choline by compounds in Proteus mirabilis lysate; format: biochemical; settings: TABLE 10, 50 μM d9-choline chloride, two hours at 37° C., read-out: TMA Inhibition (IC50, mol/L)
Method: This example provides an exemplary assay for identifying and characterizing compounds that inhibit the formation of TMA from choline.
Proteus mirabilis 29906 (Pm) strain was grown aerobically overnight in 500 ml of Nutrient Broth media (3 g/L beef extract, 5 g/L Peptone; Difco #234000) at 37° C. with 250 rpm shaking. The biomass was pelleted by centrifugation at 6000×g for 12 minutes at 4° C. The cell pellet was suspended in 240 mL of ice-cold 1× Phosphate Buffered Saline (Ca^2+ and Mg^2+ free). Ninety micrograms of Lysozyme (Sigma #L6876 Lot #SLBG8654V; Sigma-Aldrich Corp., St. Louis, Mo.) was added and incubated with 320 rpm shaking for 30 minutes at 4° C. Lysis was achieved via French press with a 4° C. prechilled 1″ diameter chamber at 1000 psi (high ratio; internal PSI equivalent ˜16000). The lysate was centrifuged at 6,000×g for 12 minutes at 4° C. to pellet extra debris. A protein concentration of the centrifuged lysate supernatant was determined by a BCA Protein Assay Kit (Pierce #23225; Thermo Fisher Scientific Co., Waltham, Mass.) and protein concentration adjusted to 3 mg/ml with 1× Dulbecco's phosphate buffered saline (DPBS). […]
The plates were again agitated on a plate shaker for 1 minute and incubated at 37° C. for two hours. […] The supernatant was removed and analyzed as described below. […]

C[S+](C)(=O)CCO [(2-hydroxyethyl) dimethylsulfoxonium chloride]
IC50 [1]: 97.3 nM
IC50 [2]: 7.74 nM

Reference: patent US11331280B2, “Methods for inhibiting conversion of choline to trimethylamine (TMA)” (The Procter & Gamble Company, priority 2018, dated 2022)
